Key:
[1] = tested on: thrombin-induced coagulation of platelet rich plasma; assay: Antithrombin activity on PRP, Hartert's thromboelastograph; assay type: in vivo, New Zealand rabbits; settings: Oryctolagus cuniculus, Platelet, ip, percent decrease of index ma/[r+k] vs before treatment; 20 mg/kg intraperitoneal, rabbits
Method: Determination of the antithrombin activity
The antithrombin activity on the PRP (platelet rich plasma) obtained following the above described method was assessed by Hartert's thromboelastograph (Hellige model). The coagulation was induced by adding to 0.25 ml of plasma 0.06 ml of a thrombin solution (Roche Topostasin® per os) at 60 units*, pH 7.4**. The antithrombin activity was assessed in terms of a percent decrease of the index (ma/[r+k]) which was calculated from the thromboelastograph diagram, wherein r is the reaction time, k is the speed of the coagulum formation and ma is the maximum spread of the tong, after an intraperitoneal treatment with a dose of 20 mg/kg of each compound under examination, referred to the same index obtained before the treatment (control).
(§1) In tables I and II are further indicated for each compound the method of preparation; the melting point PF in °C; the platelet antiaggregant activity (AAP) expressed in terms of DI50 in mg/kg, referred to ADP and thrombin respectively; the antithrombin activity (AT) in %; the anticoagulant activity (AC) in %; the fibrinolytic activity (FL) in %; the acute toxicity (LD50) in mice, intraperitoneally, in mg/kg, as previously defined.

[2] = tested on: CaCl2-induced plasma coagulation; assay: Anticoagulant activity on PRP, Hartert's thromboelastograph; assay type: in vivo, New Zealand rabbits; settings: Oryctolagus cuniculus, ip, percent increase of total time for coagulum formation (r+k) vs before treatment; 25 mg/kg intraperitoneal, rabbits; read-out: anticoagulant activity (AC)
Method: Determination of the anticoagulant activity
The anticoagulant activity was also assessed on PRP of animals treated as described in the preceding methods, by using again Hartert's thromboelastograph method.
The plasma coagulation was induced by adding to 0.25 ml PRP a 1.29% solution of CaCl2.
The anticoagulant effect was determined as a percent increase of the total time for the coagulum formation (the index r+k can be obtained from the thromboelastograph diagram) in a plasma after treatment, referred to the same index obtained before the treatment (control). Again the dose level was 25 mg/kg for each compound under examination, intraperitoneally.
as §1

[3] = tested on: platelet aggregation induced by thrombin; assay: Platelet aggregation inhibitory activity in vivo (Born aggregometer), thrombin-induced; set-up: species or system New Zealand rabbits; settings: Oryctolagus cuniculus, Platelet, ip, dose for 50% inhibition of thrombin-induced aggregation curve; rabbits, intraperitoneal, blood 2, 4 and 6 hours after injection; read-out: platelet antiaggregant activity (AAP), DI50, Thrombin
Method: (§2) Determination of the platelet aggregation inhibitory activity in vivo
(§3) The activity of the above described compounds as platelet antiaggregant was tested in vivo on rabbits, by the Born aggregometer. The inhibition of the aggregation curve induced by ADP and thrombin was assessed with different drug concentrations according to the platelet reactivity. New Zealand rabbits which had been held fasting for 12 hours with water ad libitum, were anaesthetized with Nembutal in a dose of 35 mg/kg intramuscolarly. The blood was withdrawn from the carotidal arthery, before (control) and 2, 4, and 6 hours after the intraperitoneal injection of the compounds under examination (at the dose indicated below). The blood samples were taken up in a 3.8% aqueous solution of sodium citrate in a ratio 10:1 and thereupon centrifuged at 1500 r.p.m. for 10 minutes, for obtaining a PRP (platelet rich plasma). A portion of such a plasma was thereupon centrifuged at 8000 r.p.m. for 10 minutes, for obtaining a PPP (platelet lean plasma) which was used for zeroing the measuring apparatus.
(§4) From the results of said experiments, there was determined the dose of each product in mg/kg body weight able to induce a 50% inhibition of the aggregation curve (DI50) after treatment, referred to the curve obtained by the same control plasma before treatment.
as §1

[4] = tested on: platelet aggregation induced by ADP; assay: Platelet aggregation inhibitory activity in vivo (Born aggregometer), ADP-induced; set-up: species or system New Zealand rabbits; settings: Oryctolagus cuniculus, Platelet, ip, dose for 50% inhibition of ADP-induced aggregation curve; rabbits, intraperitoneal, blood 2, 4 and 6 hours after injection; read-out: platelet antiaggregant activity (AAP), DI50, ADP
Method: as §2, §3, §4, §1

blood coagulum = assay: Fibrinolytic activity, Fearnley method (lysis of blood coagulum in toto); assay type: in vivo; settings: Oryctolagus cuniculus, ip, 0.5 h, percent decrease of coagulum weight after 30 minutes at 37° C.; 25 mg/kg intraperitoneal, rabbits; read-out: fibrinolytic activity (FL)
Method: Determination of the fibrinolytic activity
The determination of the fibrinolytic activity was made following the Fearnley method for the lysis of the blood coagulum in toto.
0.2 ml of blood were withdrawn from the marginal vein of the ear of rabbits treated in the same way as the previously described tests, before and after an intraperitoneal injection of the compounds under test at a dose level of 25 mg/kg for each compound.
The blood samples were placed in test tubes containing 1.7 ml of phosphate buffer at pH 7.4 and 0.1 ml of thrombin (Roche Topostasin ® per os) at 50 units NIH/ml, and maintained in an ice bath. The test tubes were maintained at said temperature for 30 minutes and thereupon were transferred to a temperature controlled water bath at 37° C.
The fibrinolytic activity was determined as a percent decrease of the coagulum weight, measured after incubation for 30 minutes at 37° C.
as §1

[5] = Acute toxicity, intraperitoneal; settings: mouse, in vivo, ip, male Swiss mice, intraperitoneal, 7 days observation; preliminary, by graphic interpolation; read-out: acute toxicity (LD50 / DL50)
Method: The acute toxicity limit was determined intraperitoneally on male Swiss mice, weighing 20±2 g, held fasting for 18 hours with water ad libitum.
The animals were maintained under observation for 7 days of treatment, by examining the general symptomatology and noting the death sequency. The preliminary DL50 in mg/kg body weight was calculated by graphic interpolation of the results as obtained.
as §1

SMILES	inhibition in vivo at 20 mg/kg [1] [%]	change in vivo at 25 mg/kg [2] [%]	ED50 [3] [mg/kg]	ED50 [4] [mg/kg]	fibrinolytic activity (percent decrease of coagulum weight) at 25 mg/kg (blood coagulum) [%]	LD50 at 168 h [5] [mg/kg]
C=CCCCOc1ccc(C(=O)NCc2cccnc2)cc1C(=O)NCc1cccnc1 [Example 9]	49.9	14.5	23.2	36.2	40.3	375
C=C(C)Oc1c(Cl)cc(C(=O)N(C)Cc2ccncc2)cc1C(=O)N(C)Cc1ccncc1 [Example 68]	35.2	15.5	30	47.5	30	255
CCOc1ccc(C(=O)N(Cc2cccnc2)CC(C)C)cc1C(=O)N(Cc1cccnc1)CC(C)C [Example 44]	38.6	19.3	20.9	28.7	32.5	465
CCCCCCOc1ccc(C(=O)NCc2ccncc2)cc1C(=O)NCc1ccncc1 [Example 60]	48.6	22.2	17.5	20.3	38.5	206
CC=COc1c(Cl)cc(C(=O)N(Cc2cccnc2)CC(C)(C)C)cc1C(=O)N(Cc1cccnc1)CC(C)(C)C [Example 48]	27.6	14.4	31.9	50.3	20.1	207
CC=CCOc1ccc(C(=O)NCc2cccnc2)cc1C(=O)NCc1cccnc1 [Example 11]	52.3	13.5	18.6	25.3	44.2	178
O=C(NCc1cccnc1)c1cc(Cl)c(O)c(C(=O)NCc2cccnc2)c1 [Example 32]	22.2	11.8	33.6	50.2	17.3	425
CC(C)(C)COc1c(C(=O)NCc2cccnc2)cc(C(=O)NCc2cccnc2)cc1[N+](=O)[O-] [Example 35]	25.4	12.6	29.7	37.1	20.2	194
CC=COc1c(Cl)cc(C(=O)N(Cc2cccnc2)C(C)(C)CC)cc1C(=O)N(Cc1cccnc1)C(C)(C)CC [Example 47]	25.6	12.8	36.2	55.8	19.5	210
CCCCN(Cc1cccnc1)C(=O)c1ccc(OC)c(C(=O)N(CCCC)Cc2cccnc2)c1 [Example 42]	28.7	14.5	47.2	66.4	21.7	623
C=CCOc1ccc(C(=O)NCc2cccnc2)cc1C(=O)NCc1cccnc1 [Example 7]	51.5	14.5	19.2	36.3	44.7	374
O=C(NCc1cccnc1)c1cc(C(=O)NCc2cccnc2)c(O)c([N+](=O)[O-])c1 [Example 31]	23.1	13.6	27	36.6	20.5	345
COc1c(Cl)cc(C(=O)N(Cc2ccncc2)C(C)C)cc1C(=O)N(Cc1ccncc1)C(C)C [Example 71]	53.9	25.6	19.6	28.1	47.7	384

Reference: patent publication US4294833A, “Substituted 4-hydroxy-isophthalic acid picolylamides having a pharmaceutical activity in thromboembolic disorders” (Societa Italo-Britannica, priority 1977, dated 1981)
